Assay results from patent US20020016346A1, “Method for enhancing outflow of aqueous humor in treatment of glaucoma” (The Regents University of California, a California …, priority 1994, published 2002).

Columns and labels:
eye of a rabbit = assay: Intra-ocular pressure in rabbits after subconjunctival injection; format: in vivo
Method: Male albino New Zealand rabbits weighing≧2 Kg were used for in vivo experiments performed under various active animal use protocols approved by the Institutional Animal Care and Use Committee at UC Davis. Animals were sedated with an intravenous dose of Napentabarbitol, 1-2 mg/Kg to permit their handling and frequent measurement of intra-ocular pressure (IOP). Topical anesthesia consisting of Proparacaine HCl (Alcaine™) was used for IOP measurements. A pneumatonometer (Mentor O & O Classic Model 30 Penumatonometer™, Norwell, Mass.) calibrated to a known (25 mmHg) pressure prior to each experiment was used for all IOP measurements. This model of Pneumatonometer provides a readout of standard deviation of each measurement; only measurements with a standard deviation of≦1 mmHg were accepted and most were less than 0.5 mmHg. Following sedation, IOP measurements were carried out over at least 30 minutes to assure that a stable baseline IOP was present.
Drugs and/or vehicle was administered to one eye of each animal via subconjunctival injection in order to bypass any barriers to drug penetration, such as an intact corneal and conjunctival epithelium and to achieve rapid and high concentrations of drug, bypassing epithelial barriers. The contralateral eye treated only with vehicle served as a control for each animal. Two syringes were prepared for each experiment, one containing drug and vehicle, the other containing only vehicle. […] Injections raised a prominent bleb, confirming subconjunctival placement of the drug or vehicle. This bleb then smoothed out over about ten minutes, indicating diffusion of the drug or vehicle throughout the subconjunctival space.
Measurements of intra-ocular pressure were taken at various intervals following the subconjunctival administration of the drug and/or vehicle. IOP in both eyes fluctuated over time reflecting the level of anesthesia. During the course of the experiment, the animal handlers and investigators were masked as to which eve had received the drug or control injection.

Na—K—Cl cotransport [1] = molecular target: T1, Na—K—Cl cotransport (Bos taurus, UniProt F1MS08); assay: K influx (86Rb) in bovine TM cell monolayers; format: cell-based; settings: bovine TM cells
T1 sequence (F1MS08 1-1204): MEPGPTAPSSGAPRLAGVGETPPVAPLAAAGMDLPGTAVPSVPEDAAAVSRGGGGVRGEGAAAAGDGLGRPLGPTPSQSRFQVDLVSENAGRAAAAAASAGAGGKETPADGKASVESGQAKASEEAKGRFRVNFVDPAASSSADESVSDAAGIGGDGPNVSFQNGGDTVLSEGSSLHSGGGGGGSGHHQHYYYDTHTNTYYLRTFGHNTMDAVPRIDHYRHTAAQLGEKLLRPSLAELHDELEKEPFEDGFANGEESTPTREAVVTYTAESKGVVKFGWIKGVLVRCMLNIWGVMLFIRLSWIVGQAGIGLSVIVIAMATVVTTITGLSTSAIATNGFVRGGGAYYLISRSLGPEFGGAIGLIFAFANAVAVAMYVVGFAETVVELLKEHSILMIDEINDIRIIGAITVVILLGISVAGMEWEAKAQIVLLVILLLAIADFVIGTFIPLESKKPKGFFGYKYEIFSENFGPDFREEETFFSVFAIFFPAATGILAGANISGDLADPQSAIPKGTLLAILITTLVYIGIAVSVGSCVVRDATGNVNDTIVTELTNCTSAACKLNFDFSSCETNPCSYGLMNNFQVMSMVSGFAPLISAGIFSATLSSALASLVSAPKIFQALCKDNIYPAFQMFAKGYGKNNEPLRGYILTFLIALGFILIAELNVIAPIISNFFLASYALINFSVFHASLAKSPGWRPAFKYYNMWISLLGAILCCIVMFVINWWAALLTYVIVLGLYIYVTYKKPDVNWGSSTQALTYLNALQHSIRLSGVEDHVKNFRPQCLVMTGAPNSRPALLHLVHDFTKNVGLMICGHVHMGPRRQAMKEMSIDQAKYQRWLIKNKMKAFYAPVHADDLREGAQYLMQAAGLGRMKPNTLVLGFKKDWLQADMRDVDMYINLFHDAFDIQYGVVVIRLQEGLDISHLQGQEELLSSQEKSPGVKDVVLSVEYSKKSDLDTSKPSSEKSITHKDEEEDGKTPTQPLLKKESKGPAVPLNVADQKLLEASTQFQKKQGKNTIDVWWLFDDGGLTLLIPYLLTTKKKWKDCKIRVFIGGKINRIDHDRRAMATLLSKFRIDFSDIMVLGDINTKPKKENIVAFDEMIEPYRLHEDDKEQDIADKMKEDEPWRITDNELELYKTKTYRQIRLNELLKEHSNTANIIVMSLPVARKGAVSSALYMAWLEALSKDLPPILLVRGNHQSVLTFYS
Method: (§1) Details of this method have been published previously (O'Donnell, M. E., supra, 1989). Briefly, bovine or human TM cell monolayers on 24 well plates were equilibrated for 10 minutes at 37° C. in a Hepes-buffered minimal essential medium (MEM) containing (in mM): 144 Na, 147 Cl, 5.8 K, 1.2 Ca, 4.2 HCO3, 0.4 H2PO4, […], 0.4 SO4, 5.6 glucose and 20 Hepes. […] The assay medium also contained ^86Rb (1 μCi/ml) (Dupont New England Nuclear, Boston, Mass.). The assay was terminated by rinsing the wells with ice-cold isotonic MgCl2, then extracting the contents with 0.2% sodium dodecyl sulfate (SDS), and determining the amount of radioactive contents by liquid scintillation. Osmolarities of all preincubation and assay media were verified by osmometry (Model 3W2, Advanced Instruments, Norwood, Mass.).
The effects of hormones, neurotransmitters and second messengers on Bumetanide-sensitive K influx of bovine trabecular meshwork cells were assessed using the procedures of Example 1. […] The control is the Hepes-buffered medium containing Na, K, Cl, CA and other ions as described in Example 1B. […] The data represent the mean values±SEM of quadruplicate determinations from two experiments.

bovine TM cells = assay: TM cell volume by electronic cell sizing (Coulter Counter); format: cell-based; settings: 30 minute exposure; bumetanide 10 μM, ethacrynic acid 1 mM; versus Hepes MEM control
Method: By the second method, TM cells were trypsinized briefly in Ca-free medium, then rinsed with medium containing trypsin inhibitor and suspended in Hepes MEM. Mean cell volumes were then analyzed by electronic cell sizing on a Coulter Counter™ […] (Model ZM), with channelizer (C256), using at least 50,000 cells per data point and an orifice diameter of 140 μm. Aliquots of suspended cells were diluted into Hepes MEM containing the tonicity and/or agents to be evaluated. Mean cell volumes of each suspension aliquot were followed over time, starting at 1 minute after addition of cells to the assay media. Cell suspensions were maintained at 37° C. throughout the assay period. Absolute volumes (picoliters/cell) were calculated from distribution curves of cell diameter, using a standard curve generated by polystyrene latex beads of known diameter.
In order to determine whether the Na—K—Cl cotransporter of TM cells may play a role in restoration of intracellular volume following hypertonicity-induced cell shrinkage, we evaluated the effect of hypertonicity on TM cell volume and Na^+—K^+—2Cl^− cotransport activity. […] The intracellular volume of the cells then increased over a slower time course, with volume recovering to approximately 84% by 33 minutes as shown in FIG. 3A.

Na—K—Cl cotransport [2] = molecular target: T2, Na—K—Cl cotransport (Homo sapiens, UniProt P55011); assay: K influx (86Rb) in human TM cell monolayers; format: cell-based; settings: human TM cells, 1 mM ethacrynic acid
T2 construct: bovine or human TM cell monolayers on 24 well plates; endogenous in cells; host or cells: primary cultured human trabecular meshwork cells
T2 sequence (P55011 1-1212): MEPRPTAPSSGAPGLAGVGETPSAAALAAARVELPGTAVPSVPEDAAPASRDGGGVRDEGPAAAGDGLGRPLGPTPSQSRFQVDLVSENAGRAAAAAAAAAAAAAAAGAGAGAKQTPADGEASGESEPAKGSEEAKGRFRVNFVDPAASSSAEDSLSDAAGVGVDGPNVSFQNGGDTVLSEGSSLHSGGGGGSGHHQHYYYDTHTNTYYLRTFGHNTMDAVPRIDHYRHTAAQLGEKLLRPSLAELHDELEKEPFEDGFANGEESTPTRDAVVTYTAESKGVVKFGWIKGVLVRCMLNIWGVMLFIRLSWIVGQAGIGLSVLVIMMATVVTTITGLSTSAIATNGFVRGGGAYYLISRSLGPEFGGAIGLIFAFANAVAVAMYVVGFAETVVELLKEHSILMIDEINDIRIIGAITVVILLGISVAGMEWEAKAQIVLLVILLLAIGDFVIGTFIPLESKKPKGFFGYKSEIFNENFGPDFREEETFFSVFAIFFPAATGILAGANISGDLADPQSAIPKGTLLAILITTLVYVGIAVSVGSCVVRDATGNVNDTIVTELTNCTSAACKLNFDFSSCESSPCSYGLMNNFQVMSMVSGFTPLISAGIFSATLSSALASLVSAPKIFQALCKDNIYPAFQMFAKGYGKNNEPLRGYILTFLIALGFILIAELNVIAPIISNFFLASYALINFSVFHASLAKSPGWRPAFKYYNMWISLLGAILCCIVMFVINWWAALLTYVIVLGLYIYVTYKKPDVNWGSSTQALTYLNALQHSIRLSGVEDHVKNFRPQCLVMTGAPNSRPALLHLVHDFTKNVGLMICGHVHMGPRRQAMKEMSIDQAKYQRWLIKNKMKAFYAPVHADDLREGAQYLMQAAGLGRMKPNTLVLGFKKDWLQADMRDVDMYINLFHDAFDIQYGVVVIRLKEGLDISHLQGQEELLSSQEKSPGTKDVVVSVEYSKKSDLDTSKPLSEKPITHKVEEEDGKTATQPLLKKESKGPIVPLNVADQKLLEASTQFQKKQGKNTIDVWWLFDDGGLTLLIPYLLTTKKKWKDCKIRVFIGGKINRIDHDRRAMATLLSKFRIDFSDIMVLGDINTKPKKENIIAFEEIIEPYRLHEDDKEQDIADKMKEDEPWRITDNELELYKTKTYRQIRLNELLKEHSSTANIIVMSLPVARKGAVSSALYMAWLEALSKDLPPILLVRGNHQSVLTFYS
Method: as §1

[3] = VP 100 nM, NE 10 μM, Ach 1 μM, cAMP 50 μM, cGMP 50 μM, A23187 1 μM, PMA 10 nM, Ca-free medium plus 5 μM BAPTA-AM, control 25.6 ± 0.71

SMILES: NS(=O)(=O)c1cc(C(=O)O)cc(NCc2ccccc2)c1Oc1ccccc1 [benzmetanide]
- time after which significant reduction of IOP was observed (eye of a rabbit; 0.1 cc of 7.5 μM benzmetanide subconjunctival): 15 min
- decrease in IOP (eye of a rabbit; 0.1 cc of 7.5 μM benzmetanide subconjunctival, after 50 minutes, relative to contralateral control eye): 24%

SMILES: C=C(CC)C(=O)c1ccc(OCC(=O)O)c(Cl)c1Cl [ethacrynic acid]
- BUMETANIDE-SENSITIVE K INFLUX (Na—K—Cl cotransport [1]; 1 mM ethacrynic acid): abolished
- intracellular volume (bovine TM cells): significant reduction
- BUMETANIDE-SENSITIVE K INFLUX (Na—K—Cl cotransport [2]): abolished

SMILES: Cc1cccc(Nc2ccncc2S(=O)(=O)NC(=O)NC(C)C)c1 [torasemide]
- IOP-lowering effect (eye of a rabbit; 0.1 cc of 1 μM torasemide subconjunctival): time coarse and magnitude similar to that seen with bumetanide
- average IOP lowering effect (eye of a rabbit; average of two experiments, FIG. 6): over 20%

SMILES: Nc1nc2c(nc(Br)n2[C@@H]2O[C@@H]3COP(=O)(O)O[C@H]3[C@H]2O)c(=O)[nH]1 [cGMP, 8-bromo-cyclic GMP]
- BUMETANIDE-SENSITIVE K INFLUX (Na—K—Cl cotransport [1]; [3]): 19.7 ± 0.74 μmol/g protein/min

SMILES: NS(=O)(=O)c1cc(C(=O)O)c(NCc2ccco2)cc1Cl [furosemide]
- time after injection of significant drop in relative IOP (eye of a rabbit; 0.1 cc of 100 μM furosemide subconjunctival): 25 min
- maximal inhibition (relative IOP) (eye of a rabbit; 0.1 cc of 100 μM furosemide subconjunctival, experiment ended at 45 minutes): 12.4%

SMILES: CCCCCCCCCCCCCC(=O)O[C@@H]1[C@@H](C)[C@@]2(O)[C@@H](C=C(CO)C[C@]3(O)C(=O)C(C)=C[C@@H]23)[C@@H]2C(C)(C)[C@]12OC(C)=O [PMA, phorbol 12-myristate 13-acetate]
- BUMETANIDE-SENSITIVE K INFLUX (Na—K—Cl cotransport [1]; [3]): 34.0 ± 1.33 μmol/g protein/min

SMILES: CNc1ccc2oc(C[C@H]3O[C@@]4(CC[C@H]3C)O[C@H]([C@H](C)C(=O)c3ccc[nH]3)[C@H](C)C[C@H]4C)nc2c1C(=O)O [Compound A23187, A23187]
- BUMETANIDE-SENSITIVE K INFLUX (Na—K—Cl cotransport [1]; [3]): 33.4 ± 5.33 μmol/g protein/min

SMILES: NC(=O)CC[C@@H]1NC(=O)[C@H](Cc2ccccc2)NC(=O)[C@H](Cc2ccc(O)cc2)NC(=O)[C@@H](N)CSSC[C@@H](C(=O)N2CCC[C@H]2C(=O)N[C@@H](CCCN=C(N)N)C(=O)NCC(N)=O)NC(=O)[C@H](CC(N)=O)NC1=O [VP, vasopressin]
- BUMETANIDE-SENSITIVE K INFLUX (Na—K—Cl cotransport [1]; [3]): 40.4 ± 1.05 μmol/g protein/min

SMILES: NC[C@H](O)c1ccc(O)c(O)c1 [NE, norepinephrine]
- BUMETANIDE-SENSITIVE K INFLUX (Na—K—Cl cotransport [1]; [3]): 18.6 ± 1.79 μmol/g protein/min
